# Source: a melting point compilation (Tetko et al.; mined from patent text by program, amines drawn as free bases though some values may be those of a salt)
row,Structure (SMILES),melting point [°C]
1,COc1cc2c(c(Cl)c1Cl)C(=O)C(C1CCCC1)C2 (stereo not given),116 to 117
2,CN1C(=O)[C@H](NC(=O)CCc2ccc(Cl)cc2)N=C(c2ccccc2)c2ccccc21,203 to 205
3,CCOc1cc2c(C[C@H](C)N)c3n(c2cc1F)CCC3,107
4,CCC1=NC(NC(=O)Nc2cccc(C)c2)C(=O)N(CC(=O)C2CCCCC2)c2c(C)cccc21 (stereo not given),161 to 164
5,O=C(OCc1ccccc1)c1cc2cc([N+](=O)[O-])ccc2[nH]1,192
6,COc1ccc2c(c1)CC[C@H](CN1CCC3(CC1)C(=O)NCN3c1ccccc1)[C@@H]2O (relative stereo),182 to 183
7,O=C(O)c1ccc(NC(=O)c2ccc3c(c2)OCCO3)cc1,278 to 280
8,CCCCOc1c2c(nc3c1cnn3CC)CCc1ccccc1C2=O,113 to 115
9,Cc1ccc2c(c1)[nH]c(=O)n2CCCN1CCN(C(c2ccccc2)c2ccccc2)CC1,178
10,O=S1(=O)CCN(CCCN2CCc3sc(Nc4ncc(F)cn4)nc3-c3c[nH]nc32)CC1,272 to 273
11,O=[N+]([O-])c1ccc(S(=O)(=O)N2CC3CN(Cc4ccccc4)CC(C2)O3)cc1,98.4 to 101
12,O=[N+]([O-])c1cc2nc(O)c(O)nc2c2nsnc12,> 300
13,C[C@]1(CN2CC=C(c3ccccc3)CC2)Cn2cc([N+](=O)[O-])nc2O1,200 to 201
14,O=C(CCC1CCCC1)Nc1ccc2ncn3c(=O)c(C(=O)O)cnc3c2c1,279 to 283
15,COC(=O)c1c([N+](=O)[O-])cccc1S(N)(=O)=O,227 to 229
16,CCOC(=O)c1cccc(-c2ccc3ccccc3c2)c1,101 to 103
17,CN(C)S(=O)(=O)c1cc(-c2csc(=Nc3ccccc3)n2C2CCCCC2)ccc1Cl,148
18,CN1CC=C(c2c[nH]c3ccc(NC(=N)c4cccs4)cc23)C(F)C1 (stereo not given),127 to 129
19,CCC(O)(c1cc(OC)cc(OCc2ccc3ccccc3c2)c1)c1nccs1 (stereo not given),105
20,CCCC12CCC3C4CCCC=C4CCC3C1CCC2=O (stereo not given),89 to 90
21,O=c1cc(O)c(Cl)cn1COCc1ccccc1,165 to 167
22,O=C(c1ccc2[nH]c(=O)n(Cc3ccc(F)cc3)c(=O)c2c1)c1nc(Br)c2ccccn12,325
23,CC(=O)SCSc1cn(C)nn1,71 to 72
24,O=C(O)c1cn(C2CC2)c2cc(F)c(F)c(NCc3ccccc3)c2c1=O,214 to 216
25,Cc1cc(C)n(-c2ncc(Cl)c(NC3CCCCC3)n2)n1,90 to 99
26,OC(CCCN1CCc2c(c3cc(F)ccc3n2-c2ccc(F)cc2)C1)c1ccc(F)cc1 (stereo not given),145 to 149

row,Structure (SMILES),melting point [°C]
1,COc1ccc(/C=C/C(=O)C2C(=O)CC(c3ccc(OC)cc3)C([N+](=O)[O-])C2c2ccc(OC)cc2)cc1 (stereo not given),200 to 202
2,O=C(NOC1CCCCO1)c1ccc(-c2ccc3ncnc(Nc4ccc(OCc5cccc(F)c5)c(Cl)c4)c3c2)s1 (stereo not given),250
3,Cc1ccc2nc3c(C)cc(=O)c(Cl)c-3sc2c1,215 to 218
4,CCOC(=O)c1sc(SC)c2c1CCc1sc(C)nc1-2,143 to 144
5,O=C1c2cc(O)cc(O)c2C(=O)C1c1ccc(O)cc1 (stereo not given),180
6,CSc1ccc(C(CC(F)(F)F)=NO)cc1,106 to 107
7,CC(C)(Oc1ccc(OCc2ccccc2)cc1)C(=O)O,134 to 137
8,CC(C)=CCCC(C)=CCOc1ccc(OCC=C(C)CCC=C(C)C)c(C(=O)NCCc2ccncc2)c1,59.1 to 60.6
9,O=C(O)c1cc(-c2cccc(C(F)(F)F)c2)ns1,162 to 164
10,CCCC(=O)Nc1n[nH]c2c(F)c(N3CCOCC3)c(Br)cc12,240
11,Cn1nnnc1SCc1ccccc1,48.5 to 49.5
12,COc1cc(C=CCN2CCc3nc(N)sc3CC2)cc(OC)c1,114 to 119
13,CN(C)Cc1ccc(NC(=O)C2=Cc3cc(-c4ccccc4)ccc3CC2)cc1,182 to 184
14,CS(=O)(=O)N[C@@H]1CN2C(=O)N(c3cc(Cl)nc(Cl)c3)C(=O)[C@@]2(Cc2ccc(OC(F)(F)F)cc2)C1,207
15,CNC1Oc2cc(Cl)cc(-c3ccc(Cl)cc3Cl)c2O1 (stereo not given),> 250
16,CCOC(=O)c1ncc2[nH]c3cccc(Cc4ccccc4)c3c2c1COC,160 to 168
17,COC(=O)CCCS(=O)c1c(Cc2cccc3ccccc23)sc2c1c(=O)n(C)c(=O)n2CC(C)C (stereo not given),160 to 161
18,COc1ccc2c(c1)Sc1c(cc(OC)c(OC)c1Br)N2,223 to 225
19,COC(=O)[C@H](Cc1cncn1C)NC(=O)C(Cc1cccc2ccccc12)Cc1cccc2ccccc12,199 to 200
20,Cc1oc(-c2ccccc2)nc1COc1ccc(CCCC2SC(=O)NC2=O)cc1C(F)(F)F (stereo not given),154 to 155
21,CCOC(=O)NC(C(=O)OC)=C1CN=C(c2ccccc2F)c2cc(Cl)ccc2N1,188 to 191
22,CC(C)(C)c1cc(C(=O)c2ccn(Cc3ccccc3)c2)cc(C(C)(C)C)c1O,123 to 124
23,CCN(CCO[N+](=O)[O-])C(=O)COC(=O)c1cc(S(N)(=O)=O)c(Cl)cc1NCc1ccco1,60 to 62
24,O=c1ccn(CCCO)c(CO)c1O,138 to 139
25,CCOCCn1cc2c(C3C(=O)Nc4ccc(Br)cc43)nc(Cl)nc2n1 (stereo not given),260 to 263

# The next lines start with the values.
row,melting point [°C],Structure (SMILES)
1,88 to 90,Cc1cccc2c(-c3ccc(Cl)cc3)noc12
2,122 to 125,COC(=O)C(Oc1ccc(Cl)cc1)c1ccc(I)cc1 (stereo not given)
3,84 to 90,C=CCn1cc(Cc2ccc(C(=O)O)cc2OC)c2cc(C=C(C)C(=O)NCCC)ccc21
4,60 to 63,CN=CN(C)c1ccccc1C#N
5,204 to 206,O=C(CNc1ccc2[nH]c(=O)oc2c1)N1CCC(Cc2ccccc2)CC1
6,216 to 217,CN(c1ccc(O)cc1)c1nc2cc(Cl)ccc2o1
7,148,CCOC(=O)N1CCC(Nc2nc3cccnc3n2Cc2ccc(CO)o2)CC1
8,120 to 122,COc1ccc(C(=O)Cl)cc1OC(=O)c1ccccc1
9,145 to 150,O=Cc1cc2c3ccccc3ccc2c2occc12
10,87 to 89,CSc1ncccc1C(=O)CC(=O)C1CC1
11,95 to 98,CCCNc1c(C#N)cnn1-c1ccc(Cl)c(Cl)c1Cl
12,74 to 77,CNC(=S)NS(=O)(=O)c1cc(CCNC(=O)/C=C/c2cccs2)ccc1OC
13,95 to 97,Cc1cc([N+](=O)[O-])cnc1Oc1ccc(Cl)c(C(F)(F)F)c1
14,169 to 170,OCc1cc2ccc3c4ccccc4ccc3c2s1
15,125,Cc1nn(-c2cnccn2)c(-c2ccccc2)c1CC(=O)O
16,38 to 42,CC(C)(C)C(=O)C(Br)c1ccccc1 (stereo not given)
17,184 to 185,O=C1CN(Cc2cnc(-c3ccc(C(CC4CCOCC4)c4ccc(S(=O)(=O)C5CC5)cc4)[nH]3)s2)C(=O)N1 (stereo not given)
18,252 to 254,COc1ccc(C=CC(=O)NNC(=O)CCc2cc(C(C)(C)C)c(O)c(C(C)(C)C)c2)cc1
19,222 to 226,CN1CCOC1=C(C#N)C=C1Nc2ccccc2C1=O
20,161 to 170,O=Cc1ccc2c(c1)Cc1cc(Br)ccc1-2
21,197 to 198,CCOC(=O)C1=C(C(F)(F)F)NC2=C(C(=O)CCC2)C1c1nccn1C (stereo not given)
22,156 to 158,Cc1ccnc(C(O)c2ccc(N)cc2)c1 (stereo not given)
23,133,COc1ccccc1C(=O)NCCc1ccc(-c2ccc(OC(C)(C)C(=O)O)cc2)cc1
24,170 to 172,CCc1oc2ccccc2c1C(=O)c1ccc(Cl)c(S(N)(=O)=O)c1
25,142 to 144,COc1nc2ccc(Br)cc2cc1C(c1ccccc1)n1cccn1 (stereo not given)

row,melting point [°C],Structure (SMILES)
1,142 to 143,COc1ccc2c(c1)SC(CCBr)C(=O)N2 (stereo not given)
2,110 to 112,N#CCOc1ccc(C(=O)c2ccccc2)c(Cl)c1Cl
3,10,CCCCC(Cc1cccnc1)(C(=O)OC(C)(C)C)S(=O)(=O)c1ccc(OC)cc1 (stereo not given)
4,91 to 94,C=C1CCC2C3CC(=O)c4cc(OC(C)=O)ccc4C3CCC12C (stereo not given)
5,191 to 194,C=CCOC(=O)OCN1C(=O)C(c2cn(C)c3ccccc23)=C(c2cn(C)c3cc([N+](=O)[O-])ccc23)C1=O
6,131 to 132,CC(C)(C)Oc1cccc(C[C@@H](C(=O)O)[C@@H](O)c2ccc(F)cc2)c1 (racemic)
7,265 to 266,Oc1cccc(Nc2n[nH]c3ncnc(Nc4cccc(Cl)c4)c23)c1
8,> 250,O=C(O)C1=CSC2C(=Cc3cn4c(n3)CCCCC4)C(=O)N12 (stereo not given)
9,92 to 105,COc1cc2c(cc1Nc1ncc(Cl)c(Nc3ccc(C#N)cc3OC)n1)CCN(CC(=O)N(C)C)CC2
10,97 to 98,O=C(CCCCCS(=O)(=O)Nc1ccccc1)NO
11,116 to 118,CCC(CC)C(c1ccnn1-c1ccccc1)N(C)S(=O)(=O)c1ccc(Br)s1 (stereo not given)
12,160 to 161,COC(=O)NNC(=O)C(O)(c1ccccc1)c1ccccc1
13,206,CCCC(CNc1cc(Cl)ccc1C(=O)O)C(=O)O (stereo not given)
14,107 to 108,O=C(O)c1cc(OCc2ccccc2)ccc1OCc1ccccc1
15,128 to 130,CC(=O)c1ccc(OCCOc2ccc3ccccc3c2)cc1C
16,54 to 55,CCOC(=O)C=Cc1c(-c2ccccc2)nn2ccccc12
17,105 to 106,Cc1nc2c(N)nc3ccccc3c2n1CCCCOCCCc1ccccc1
18,238 to 239,CS(=O)c1ccc(C(=O)O)cc1[N+](=O)[O-] (stereo not given)
19,142 to 144,CCn1c(C(C)N(C)S(=O)(=O)c2ccc(Cl)c(Cl)c2)cnc1Oc1ccc(Cl)cc1 (stereo not given)
20,185 to 188,COC(=O)Cn1oc2cc(OC)ccc2c1=O
21,112 to 114,CCCCCCCCCCCC1CC(=O)C(CCCCCC)C(=O)O1 (stereo not given)
22,245,O=C(NCc1ccc2c(c1)OCO2)c1ccc2[nH]c(=O)n(Cc3ccc4c(c3)OCO4)c(=O)c2c1
23,52 to 53,CC(=O)OCC(=O)N(C)C
24,103 to 104,CCCCc1c(C(C)C)nc(C(C)C)c(C(C)O)c1-c1ccc(F)cc1 (stereo not given)
